Assay results: patent US20210352889A1, “MACROCYCLIC TETRAPYRROLE COMPOUNDS, COMPOSITIONS AND METHODS FOR INCREASING ABIOTIC STRESS RESISTANCE IN PLANTS” (SUNCOR ENERGY INC., priority 2018, published 2021)

Key:
[1] = tested on: Arabidopsis thaliana; assay: Plant senescence triggered by salt stress, visual rating (Example 2); type: in vivo; parameters: key to Ratings at 14 days: 9: Normal growth, no leaf symptoms; 7: Nearly normal growth with some leaves and tips yellow and rolled; 4: Growth severely inhibited, significant yellowing of the leaves with most leaves rolled; 2: Complete growth arrest with most of the leaves dried and some plants dead; conditions: for % improvement: % senescence improvement relative to untreated control, 14 days; for Ratings at 14 days: visual leaf senescence score, salt stress 100, 200, 300 mM NaCl, percentages wt % of total composition
Procedure: In this example, the effect of metalized chlorin compounds and various additives on Arabidopsis thaliana senescence triggered by salt stress was measured by a visual rating scale reflecting progressive leaf senescence symptoms. […] It was also shown that the addition of oil, in particular poly-alpha-olefin (PAO), chelating agents or combinations thereof, further increased the protection. After prolonged exposure to salt stress, Na^+ accumulation in the shoot results in cytotoxic effects, whereby the most visible symptom is yellowing, followed by drying of leaves, due to leaf senescence and death. Leaf senescence may be evaluated by visual scoring reflecting progressive leaf senescence symptoms. [table] […] All percentage values in the Table are in wt % of total composition.

[2] = tested on: Arabidopsis seedlings; assay: Pigment content under photooxidative conditions (Example 6); type: in vivo, Arabidopsis thaliana
Procedure: In this example, the effect of chlorin compounds on the pigment content of seedlings grown under photooxidative conditions was evaluated. In particular, the effect of CuChIn on the pigment content of Arabidopsis seedlings grown under photooxidative conditions was evaluated. To do so, the pigments were extracted and quantified. It was shown that CuChIn supplemented plants retained more pigments under this type of stress. […] In this experiment, to determine the effect of CuChIn on the pigment content, seedlings were grown as in Example 1, except that the plants were transferred under LED lights (PAR 142 μmol m^-2 s^-1) one week after germination. 14 days old seedlings were then harvested and weighted. The tissue was ground in liquid nitrogen. […] The pigment concentrations were determined spectrophotometrically and calculated using the following formulas known to those skilled in the art (i.e. Sumanta et al., 2014):Ch-a=16.72A665.2-9.16A652. (for chlorophyll a); Ch-b=34.09[…]=(1000A470-1.63Ca-104.96Cb)/221 (for carotenoids) and […]-(1⁄4×[…]) (for anthocyanins) (A=absorbance). The data is expressed as means±standard error.

[3] = tested on: Arabidopsis thaliana seedlings; assay: Primary root length of Arabidopsis seedlings under salt stress (Example 1); type: in vivo; conditions: for Root length (mm): 10 μM CuChln in media, 10 days after germination, mean ± standard error
Procedure: Experiments were conducted to evaluate the effect of metallized chlorin compounds on salt stress treated seedlings, by measuring of primary root length. Copper chlorophyllin (CuChIn) was supplemented to the media onto which Arabidopsis thaliana seeds germinated. […] For exposure to salt, media was adjusted to contain 100 mM NaCl. For exposure to CuChIn, CuChIn was prepared as a 1 mM stock in water and was added to the media at 10 μM CuChIn final concentration. […] Arabidopsis seedlings were grown vertically at a temperature of 24±1° C., under LED lights (PAR 24 μmol m^−2/s^−1) and 16 hours:8 hours, light:dark photoperiod. Salt stress tolerance was measured by determining the reduction of primary root lengths.

[4] = tested on: Arabidopsis thaliana; assay: Effect of different oil on Arabidopsis senescence under salt stress (Example 24); conditions: in vivo
Procedure: The experimental protocol is the same as that of Example 2. In this example, the effect of metalized chlorin compounds and various oils on Arabidopsis thaliana senescence triggered by salt stress was measured by a visual rating scale reflecting progressive leaf senescence symptoms. […] It was also shown that the addition of oil further increased the protection. After prolonged exposure to salt stress, Na^+ accumulation in the shoot results in cytotoxic effects, whereby the most visible symptom is yellowing, followed by drying of leaves, due to leaf senescence and death. Leaf senescence may be evaluated by visual scoring reflecting progressive leaf senescence symptoms.

[5] = tested on: tomato plants cv. Tumbling Tom; assay: Tomato plants tolerance to drought stress (Example 9); type: in vivo; conditions: Table 9C
Procedure: In this example, the effects of chlorin compounds and formulations were tested on tomato plants cv. Tumbling Tom. The experiments were carried out in a greenhouse. Tests were designed to determine the activity of compounds on tomato plants tolerance to drought stress. In the experiments, tomato plants cv. […] Foliar treatments were applied 3 times with 7 days interval. 5 replications per treatment were used.

[6] = tested on: Tomato cultivar “Tiny Tim”; assay: Tomato plant tolerance to heat stress (Example 19); type: in vivo; conditions: for Above ground plant biomass. Dry weight Total shoots / Roots dry weight / Above ground plant biomass, Fresh weight, Total shoots: heat stress 38° C., two foliar applications; for Above ground plant biomass. Dry weight Total shoots: harvest 27 days after first treatment, per plant; for Roots dry weight / Above ground plant biomass, Fresh weight, Total shoots: tomato; for Above ground plant biomass, Fresh weight, Total shoots: 27 days after first treatment; for Roots dry weight, % increase / Total shoots dry weight % increase / Total shoots fresh weight, % increase: vs Heat stress Control
Procedure: In this example, the effects of chlorin compounds and formulations were tested on Tomato cultivar “Tiny Tim” (Stokes seeds, Ontario, Canada). Several experiments were conducted in the greenhouse and Growth Chamber. The tests were designed to determine the activity of compounds on tomato plants tolerance to heat stress. In the experiments, Tomato transplants were grown in 6″ plastic pots filled with professional soil mix to 5-6 leaves stage in the greenhouse at 22° C.-25° C. and 8 h dark/16 h light photoperiod respectively. […] The Tomato plants were treated with two foliar applications of different formulations providing an even coverage (until run-off) using hand hold Spray bottle (Continental E-Z sprayer). Plants were treated with compounds two times with 7 days interval. Twenty four hours after the first foliar spray plants were placed into a Growth chamber and exposed to temperature stress (heat stress) for 10 days. […] After second foliar spray plants were placed for a second time into the Growth chamber and exposed to temperature stress (heat stress) for another 10 days. The Tomato plants were regularly watered to avoid water deficit. The Growth chamber was set at 16 h light/8 h dark photoperiod, illumination at 300 μmol·m^−2 s^−1 during the light photoperiod and 70% relative humidity. Temperature regime in the Growth chamber was set at 25° C. during the dark. […] Plants were moved from the Growth Chamber to the greenhouse and maintained in the greenhouse for four days prior to harvest. Twenty-seven days after the first treatment, plants were harvested, and biomass were recorded. Untreated plants—Heat stress Control was used as a reference for each measurement respectively. The experiments were set out in a completely randomized design with 6 replications for each treatment.

[7] = tested on: white clover (Trifolium repens) seedlings; assay: Primary root length of white clover seedlings under salt stress (Example 3); type: in vivo; conditions: porphyrin 0.01% v/v, 7 days after germination, mean ± standard error
Procedure: In this example, the effect of porphyrin compounds on the sensitivity to salt stress of seedlings was evaluated. […] For exposure to salt, the water was adjusted to contain 100 mM NaCl. […] Salt stress tolerance was measured by determining the reduction of primary root length by analysis of pictures with the Image J™ software. Root lengths (mm) were measured 7 days after the germination. The following Table 3 summarizes the results.

[8] = 20 μM CuChln, photooxidative conditions, 14 days old seedlings, mean ± standard error
[9] = foliar spray, vs drought control

ethylenediaminetetraacetic acid-Ca [reference compound]
% improvement [1]: 14.4%
Ratings at 14 days [1]: 4

copper chlorophyllin [CuChln]
Anthocyanins [2, 8]: 0.08 ± 0.05 µg/mL
Ch-a [2, 8]: 6.62 ± 0.8 µg/mL
Ch-b [2, 8]: 2.28 ± 0.14 µg/mL
Cx + c (carotenoids) [2, 8]: 1.56 ± 0.25 µg/mL
pigments retained under photooxidative conditions ([2]; in vivo): retain more pigments than untreated plants
Root length (mm) ([3]; 0 mM NaCl): 5.05 ± 0.09 mm
influence on root length in the control experiment ([3]; 10 μM CuChIn, no salt): did not influence the root length
Root length (mm) ([3]; 100 mM NaCl): 3.16 ± 0.14 mm
salt tolerance vs untreated plants ([3]; CuChIn supplemented media): more salt tolerant than untreated plants
protection against senescence triggered by salt stress [4]: provided protection against senescence triggered by salt stress
Shoots Dry weight % increase [5, 9]: 4%
Shoots Fr. weight % increase [5, 9]: 29.6%
Plant vigor Score 1-5 ([5]; prolonged drought, foliar spray 3 times): 4.6
Shoots Fr. weight ([5]; prolonged drought, foliar spray 3 times with 7 days interval, Rate, %: CuChln 0.1, PAO488 + CuChln 0.5 + 0.1): 8.7 g
Shoots Dry weight ([5]; prolonged drought, foliar spray 3 times, Rate, %: CuChln 0.1, PAO488 + CuChln 0.5 + 0.1): 0.84 g
Above ground plant biomass. Dry weight Total shoots [6]: 4.92 g
Roots dry weight [6]: 1.17 g/plant−^1
Above ground plant biomass, Fresh weight, Total shoots [6]: 37.17 g/plant^−1
Roots dry weight, % increase [6]: 26%
Total shoots dry weight % increase [6]: 10%
Total shoots fresh weight, % increase [6]: 11%
% improvement [1]: 28.7%
protection against senescence triggered by salt stress ([1]; in vivo): provides protection against plants senescence triggered by salt stress
Ratings at 14 days [1]: 4.5

O=C([O-])CN(CCN(CC(=O)[O-])CC(=O)[O-])CC(=O)[O-].[Ca+2].[Ca+2] [0.05% Ca2EDTA, reference compound]
Above ground plant biomass. Dry weight Total shoots [6]: 4.72 g
Roots dry weight [6]: 1.07 g/plant−^1
Above ground plant biomass, Fresh weight, Total shoots [6]: 34.62 g/plant^−1
Roots dry weight, % increase [6]: 15%
Total shoots dry weight % increase [6]: 6%
Total shoots fresh weight, % increase [6]: 3%

C=CC1=C(C)c2cc3[n-]c(cc4[n-]c(cc5nc(cc1n2)C(C)=C5C=C)c(C)c4CCC(=O)O)c(CCC(=O)O)c3C.[Zn+2] [ZnPP9, zinc protoporphyrin-IX]
Root length (mm) ([7]; 0 mM NaCl): 1.01 ± 0.08 mm
Root length (mm) ([7]; 100 mM NaCl): 0.8 ± 0.08 mm

O=C([O-])CC(NC(CC(=O)[O-])C(=O)[O-])C(=O)[O-].[Na+].[Na+].[Na+].[Na+] (stereo not shown) [0.25% Baypure CX100 ™, tetrasodium iminodisuccinate]
% improvement [1]: 14.4%
Ratings at 14 days [1]: 4

O=C(O)CC(NCCNC(CC(=O)O)C(=O)O)C(=O)O (stereo not shown) [5 mM EDDS, ethylenediamine-N,N′-disuccinic acid, reference compound]
% improvement [1]: 14.4%
Ratings at 14 days [1]: 4

C=CC1=C(C)c2cc3[nH]c(cc4nc(cc5[nH]c(cc1n2)c(C)c5CCC(=O)O)C(CCC(=O)O)=C4C)c(C)c3C=C [PP9, protoporphyrin-IX]
Root length (mm) ([7]; 0 mM NaCl): 1.04 ± 0.05 mm
Root length (mm) ([7]; 100 mM NaCl): 0.7 ± 0.08 mm
